This is an account of results in US20250319032A1, “PHARMACEUTICAL COMPOSITIONS OF RIBOCICLIB” (Novartis AG, priority 2024, published 2025).

Where only a bound is given, the exact number is not on record here.

This data set in a line: Nitrite content (ion chromatography; LC-FLD with DAN derivatisation; Griess test) in drug substance, intermediates, reagents, solvents, filters, excipients. In kind it is physicochemical. Details: Nitrite content T0 (enhanced method): unit: ppm. As to conditions: for Nitrite NAP method (ppm) / Nitrite NAT enhanced sample prep. (ppm): ribociclib succinate drug substance batches at release; for Nitrite content T0 (enhanced method): drug substance manufactured at Menges. From the text: The method of testing for the presence and/or total amount of nitrites that is used in the methods of the invention may be any method which allows for the detection and/or quantitation of nitrites in a composition. For example, the method may be the Griess test. The Griess test allows for the detection and analysis of nitrite by the formation of a red-pink colour upon treatment of a nitrite-containing sample with the Griess reagent. The Griess reagent consists of two components in an acidic solution: an aniline derivative and a coupling agent. The most common arrangements use sulfanilamide and N-(1-naphthyl)ethylenediamine. For example 0.2% N-(1-naphthyl)ethylenediamine dihydrochloride and 2% sulfanilamide in 5% phosphoric acid may be used as a Griess reagent. Other aniline derivatives that may be used in a Griess reagent include sulfanilic acid, nitroaniline, and p-aminoacetophenone.
The Griess test involves two subsequent reactions, as shown in the scheme below. When the aniline derivative (e.g., sulfanilamide) is added, the nitrite ion reacts with it in the Griess diazotization reaction to form a diazonium salt, which then reacts with N-(1-naphthyl)ethylenediamine in an azo-coupling reaction, forming a pink-red azo-dye. Using a spectrophotometer, the nitrite concentration can then be quantitatively detected.
Additionally purified water; e.g. Milli Q • 2.
• 10 mM KH2PO4 Weigh accurately about 1.361 g of KH2PO4 into a 1 L volumetric flask, dissolve it in approximately 950 mL of additionally purified water and adjust the pH to 8.0 (with 2.7 M NaOH). Make up to the mark with additionally purified water. • 0.62 M HCl Add a few millilitres (e.g. 20 mL) of additionally purified water to a 200 mL volumetric flask, add 10.280 mL of concentrated HCl, mix and make up to the mark with additionally purified water. • 2.7 M NaOH Weigh accurately about 1.092 g of NaOH pellets into a 10 mL volumetric flask and dissolve it in additionally purified water. Cool to room temperature and make up to the mark with the same solvent. • Reagent DAN Weigh accurately about 5 mg of 2,3-diaminophthalene into a 100 mL volumetric flask and dissolve it with the solvent (methanol/water 1:1 (v/v)). Dilute up to the mark and ensure visual full dissolution. Use an amberglass flask. • Mobile phase A Mix 950 mL of 10 mM KH2PO4 solution (pH=8) and add 50 mL methanol. • Mobile phase B Methanol. • Solvent Methanol/water 1:1 (v/v), e.g. mix 2000 mL of additionally purified water and 2000 mL methanol.
• Instrument: HPLC with FLR detector; e.g. Waters Arc or equivalent • Column: C18 50×4.6 mm, 2.5 μm, e.g. XBridge C18 2.5 μm, 4.650 mm or equivalent
• Notes It is recommended to wear additional protective equipment (face mask and gloves) during weighing. • It is recommended to wash the column with 50% methanol after the analysis (example of preparation: mix 500 mL methanol and 500 m1 of additionally purified water). • It is recommended to rinse the injector with solvent after each injection. • All glassware and tools should be rinsed with additionally purified water before use. It is not recommended to leave the solutions open for a longer time before measurement. • Blank solution 1 Transfer 1 mL of solvent into a HPLC vial and perform derivatization as described below. • Blank solution 2 Transfer 10 mL of solvent into a single use glass vial and mix it on a magnetic stirrer for 30 min. Transfer the solution into a 5 mL centrifuge tube and centrifuge for 10 min at 12000 rpm. […] Fill up to the mark with solvent and mix. • (Cnitrite≈0.0005 mg/mL) • Comparison solution Transfer 10 mL of nitrite stock solution into a 500 mL volumetric flask. • (2 parallels) Fill up to the mark with solvent and mix. • Transfer 1 mL solution into a HPLC vial and perform the derivatization as described below. • (Cnitrite≈100 ppb) • Sample solution Accurately weigh about 1000 mg of the sample into a glass vial for single use and add 10 mL of solvent.
In general terms: The Griess reaction detects nitrite, a stable product of nitric oxide.

As for `CN(C)C(=O)c1cc2cnc(Nc3ccc(N4CCNCC4)cn3)nc2n1C1CCCC1.O=C(O)CCC(=O)O` [Batch B698296], the “Nitrite NAP method (ppm)” value is reported as 0.4 ppm and the “Nitrite NAT enhanced sample prep. (ppm)” value was 0.3 ppm. Regarding `CN(C)C(=O)c1cc2cnc(Nc3ccc(N4CCNCC4)cn3)nc2n1C1CCCC1.O=C(O)CCC(=O)O` [Batch B696587], the “Nitrite content T0 (enhanced method)” value is below 0.1, the “Nitrite NAP method (ppm)” value is on record as 0.2 ppm and the “Nitrite NAT enhanced sample prep. (ppm)” value is listed as below 0.1 ppm. Regarding `CN(C)C(=O)c1cc2cnc(Nc3ccc(N4CCNCC4)cn3)nc2n1C1CCCC1.O=C(O)CCC(=O)O` [Batch B709938], the “Nitrite NAP method (ppm)” value is listed as 0.2 ppm and the “Nitrite NAT enhanced sample prep. (ppm)” value is reported as below 0.1 ppm. As to `CN(C)C(=O)c1cc2cnc(Nc3ccc(N4CCNCC4)cn3)nc2n1C1CCCC1.O=C(O)CCC(=O)O` [RIBOCICLIB SUCCINATE 833268R008], the “Nitrite NAT enhanced sample prep. (ppm)” value (manufacturer Raybow - DS04) is given as 0.3 ppm. Turning to `CN(C)C(=O)c1cc2cnc(Nc3ccc(N4CCNCC4)cn3)nc2n1C1CCCC1.O=C(O)CCC(=O)O` [RIBOCICLIB SUCCINATE 834325A015], the “Nitrite NAT enhanced sample prep. (ppm)” value (manufacturer Raybow - DS05) stood at 0.1 ppm. With `CN(C)C(=O)c1cc2cnc(Nc3ccc(N4CCNCC4)cn3)nc2n1C1CCCC1.O=C(O)CCC(=O)O` [Batch B711866], the “Nitrite NAP method (ppm)” value amounted to 0.2 ppm and the “Nitrite NAT enhanced sample prep. (ppm)” value is below 0.1 ppm. The corresponding values for `CN(C)C(=O)c1cc2cnc(Nc3ccc(N4CCNCC4)cn3)nc2n1C1CCCC1.O=C(O)CCC(=O)O` [Batch B711440] are 0.1 ppm and 0.9 ppm. As for `CN(C)C(=O)c1cc2cnc(Nc3ccc(N4CCNCC4)cn3)nc2n1C1CCCC1.O=C(O)CCC(=O)O` [Batch B709051], the “Nitrite NAP method (ppm)” value stood at 0.2 ppm and the “Nitrite NAT enhanced sample prep. (ppm)” value is listed as below 0.1 ppm. On to `CN(C)C(=O)c1cc2cnc(Nc3ccc(N4CCNCC4)cn3)nc2n1C1CCCC1.O=C(O)CCC(=O)O` [RIBOCICLIB SUCCINATE 833268A212], for which the “Nitrite NAT enhanced sample prep. (ppm)” value (manufacturer Raybow - DS04) is on record as below 0.1 ppm. For `CN(C)C(=O)c1cc2cnc(Nc3ccc(N4CCNCC4)cn3)nc2n1C1CCCC1.O=C(O)CCC(=O)O` [Batch B711868], the “Nitrite NAT enhanced sample prep. (ppm)” value is recorded as below 0.1 ppm. Consider `CN(C)C(=O)c1cc2cnc(Nc3ccc(N4CCNCC4)cn3)nc2n1C1CCCC1.O=C(O)CCC(=O)O` [RIBOCICLIB SUCCINATE 833268R013], for which the “Nitrite NAT enhanced sample prep. (ppm)” value (manufacturer Raybow - DS04) is listed as below 0.1 ppm. Regarding `CN(C)C(=O)c1cc2cnc(Nc3ccc(N4CCNCC4)cn3)nc2n1C1CCCC1.O=C(O)CCC(=O)O` [Batch B707657], the “Nitrite NAP method (ppm)” value amounted to 0.2 ppm and the “Nitrite NAT enhanced sample prep. (ppm)” value came out at 0.1 ppm. As for `CN(C)C(=O)c1cc2cnc(Nc3ccc(N4CCNCC4)cn3)nc2n1C1CCCC1.O=C(O)CCC(=O)O` [Batch B695106], the “Nitrite content T0 (enhanced method)” value is listed as 0.1, the “Nitrite NAP method (ppm)” value turned out to be 0.2 ppm and the “Nitrite NAT enhanced sample prep. (ppm)” value came out at 0.1 ppm. On to `CN(C)C(=O)c1cc2cnc(Nc3ccc(N4CCNCC4)cn3)nc2n1C1CCCC1.O=C(O)CCC(=O)O` [RIBOCICLIB SUCCINATE 833268A201], for which the “Nitrite NAT enhanced sample prep. (ppm)” value is recorded as 0.1 ppm (manufacturer Raybow - DS04) and 0.1 ppm (manufacturer Raybow - DS05). For the compound `CN(C)C(=O)c1cc2cnc(Nc3ccc(N4CCNCC4)cn3)nc2n1C1CCCC1.O=C(O)CCC(=O)O` [RIBOCICLIB SUCCINATE 833268R014], for the setting “manufacturer Raybow - DS04”, the “Nitrite NAT enhanced sample prep. (ppm)” value was below 0.1 ppm.

For `CN(C)C(=O)c1cc2cnc(Nc3ccc(N4CCNCC4)cn3)nc2n1C1CCCC1.O=C(O)CCC(=O)O` [RIBOCICLIB SUCCINATE 833268R012], the “Nitrite NAT enhanced sample prep. (ppm)” value (manufacturer Raybow - DS04) is listed as below 0.1 ppm.

As to `CN(C)C(=O)c1cc2cnc(Nc3ccc(N4CCNCC4)cn3)nc2n1C1CCCC1.O=C(O)CCC(=O)O` [Batch B692472], the “Nitrite content T0 (enhanced method)” value worked out at 0.1, the “Nitrite NAP method (ppm)” value is 0.2 ppm and the “Nitrite NAT enhanced sample prep. (ppm)” value amounted to 0.1 ppm.

Regarding `CC(C)O` [IPA], the “Nitrite in IPA” value (IPA used in resin loading experiments) turned out to be 1.6 ppb. Regarding `CN(C)C(=O)c1cc2cnc(Nc3ccc(N4CCNCC4)cn3)nc2n1C1CCCC1.O=C(O)CCC(=O)O` [Batch B709939], the “Nitrite NAP method (ppm)” value is given as 0.2 ppm and the “Nitrite NAT enhanced sample prep. (ppm)” value is below 0.1 ppm. The corresponding values for `CN(C)C(=O)c1cc2cnc(Nc3ccc(N4CCNCC4)cn3)nc2n1C1CCCC1.O=C(O)CCC(=O)O` [Batch B709050] are 0.2 ppm and 0.1 ppm.

On to `CN(C)C(=O)c1cc2cnc(Nc3ccc(N4CCNCC4)cn3)nc2n1C1CCCC1.O=C(O)CCC(=O)O` [Batch B711867], for which the “Nitrite content T0 (enhanced method)” value is reported as below 0.1, the “Nitrite NAP method (ppm)” value worked out at 0.1 ppm and the “Nitrite NAT enhanced sample prep. (ppm)” value is reported as 0.1 ppm.

With `CN(C)C(=O)c1cc2cnc(Nc3ccc(N4CCNCC4)cn3)nc2n1C1CCCC1.O=C(O)CCC(=O)O` [RIBOCICLIB SUCCINATE 833268R011], for the setting “manufacturer Raybow - DS04”, the “Nitrite NAT enhanced sample prep. (ppm)” value was below 0.1 ppm.

Regarding `CN(C)C(=O)c1cc2cnc(Nc3ccc(N4CCNCC4)cn3)nc2n1C1CCCC1.O=C(O)CCC(=O)O` [Batch B695105], the “Nitrite NAP method (ppm)” value is 0.3 ppm and the “Nitrite NAT enhanced sample prep. (ppm)” value amounted to 0.3 ppm. In the case of `CN(C)C(=O)c1cc2cnc(Nc3ccc(N4CCNCC4)cn3)nc2n1C1CCCC1.O=C(O)CCC(=O)O` [RIBOCICLIB SUCCINATE 833268R015], the “Nitrite NAT enhanced sample prep. (ppm)” value (manufacturer Raybow - DS04) is given as below 0.1 ppm. On to `CN(C)C(=O)c1cc2cnc(Nc3ccc(N4CCNCC4)cn3)nc2n1C1CCCC1.O=C(O)CCC(=O)O` [DS (B699003AA)], for which the Nitrite content result (component (DS or MgST) used in binary mixtures) is given as “DS 0.1 ppm”. In the case of `CN(C)C(=O)c1cc2cnc(Nc3ccc(N4CCNCC4)cn3)nc2n1C1CCCC1` [Batch B685591], under “ribociclib base (LEE011 B10), ion chromatography”, the “Nitrite [ppm] LOD (1 ppm)” value was “<LOD”. Consider `CN(C)C(=O)c1cc2cnc(Nc3ccc(N4CCNCC4)cn3)nc2n1C1CCCC1.O=C(O)CCC(=O)O` [RIBOCICLIB SUCCINATE 833268A144], for which the “Nitrite NAT enhanced sample prep. (ppm)” value (manufacturer Raybow - DS04) is below 0.1 ppm and the “Nitrite NAT enhanced sample prep. (ppm)” value (manufacturer Raybow - DS05) is reported as below 0.1 ppm. For the compound `CN(C)C(=O)c1cc2cnc(Nc3ccc(N4CCNCC4)cn3)nc2n1C1CCCC1.O=C(O)CCC(=O)O` [Batch B709940], the “Nitrite NAP method (ppm)” value was 0.2 ppm and the “Nitrite NAT enhanced sample prep. (ppm)” value is reported as below 0.1 ppm. Regarding `CN(C)C(=O)c1cc2cnc(Nc3ccc(N4CCNCC4)cn3)nc2n1C1CCCC1.O=C(O)CCC(=O)O` [Batch B708687], the “Nitrite NAP method (ppm)” value is recorded as 0.2 ppm and the “Nitrite NAT enhanced sample prep. (ppm)” value was below 0.1 ppm. Consider `CN(C)C(=O)c1cc2cnc(Nc3ccc(N4CCNCC4)cn3)nc2n1C1CCCC1.O=C(O)CCC(=O)O` [RIBOCICLIB SUCCINATE 833268A198], for which the “Nitrite NAT enhanced sample prep. (ppm)” value reads like this: (manufacturer Raybow - DS04) 0.1 ppm; (manufacturer Raybow - DS05) 0.1 ppm. Consider `CN(C)C(=O)c1cc2cnc(Nc3ccc(N4CCNCC4)cn3)nc2n1C1CCCC1.O=C(O)CCC(=O)O` [Batch B696590], for which the “Nitrite NAP method (ppm)” value stood at 0.3 ppm and the “Nitrite NAT enhanced sample prep. (ppm)” value amounted to 0.4 ppm. In the same order, the values of `CN(C)C(=O)c1cc2cnc(Nc3ccc(N4CCNCC4)cn3)nc2n1C1CCCC1.O=C(O)CCC(=O)O` [Batch B708688] are 0.2 ppm and below 0.1 ppm. In the same order, the values of `CN(C)C(=O)c1cc2cnc(Nc3ccc(N4CCNCC4)cn3)nc2n1C1CCCC1.O=C(O)CCC(=O)O` [Batch B698294] are 0.2 ppm and 0.2 ppm.
